How the values were obtained:
[1] = tested on: rare cancer tumor cell lines including neuroblastoma, rhabdomyosarcoma and Ewing sarcoma; experiment: MBZ cell viability IC50 across rare cancer tumor cell lines; type: cell-based; details: several rare cancer tumor cell lines; 72 hours; read-out: IC50s (range over cell lines)
Experimental: The effect of mebendazole administration on cell lines derived from exemplary cancers was tested. One approach to determining the effectiveness of mebendazole in the treatment of cancer comprises in vitro testing. In this approach, cancer cell lines representative of the cancers of the disclosure are cultured in vitro according to standard techniques (see, for example, Human Cell Culture Protocols, Third Edition, […] R. D. Hughes, Editors, Humana Press, 2012), and increasing concentrations of mebendazole are administered to determine the IC50 value. As used herein, the term “IC50 value” refers to the concentration of a compound (for example mebendazole) wherein the response to that compound (such as inhibited cellular viability) is reduced by half. The IC50 is thus a measure of the effectiveness of a compound in inhibiting a biological process. […] Based on this biology, several rare cancer tumor cell lines including neuroblastoma, rhabdomyosarcoma and Ewing sarcoma were analyzed for sensitivity to MBZ treatment in vitro. […] In all cases, including those described below, the viable cells were determined using the CellTiter Glo® kit and an IC50 curve was generated using the PRISM software.

[2] = tested on: CHP-212 neuroblastoma cells; experiment: Synergy of MBZ or HA-PLGA-MBZ with chemotherapeutic agents (Chou-Talalay CI, Cell Titer Glo); type: cell-based; details: CHP-212 + 4-HC
Experimental: (§4) For in vitro experiments, cells were plated in triplicate and treated with a range of concentrations of MBZ and relevant chemotherapeutic agents in a complete Latin square.
(§5) Cells were plated in triplicate and treated with a range of 5 concentrations of MBZ in combination with 5 concentrations of chemotherapeutic agents in a complete Latin square. Following a 72 hour incubation, cell viability was determined using Cell Titer Glo.
(§6) In table 22 below, cells were plated in triplicate and treated with a range of 5 concentrations of MBZ or HA-PLGA-MBZ nanoparticles containing a molar equivalent of MBZ, and 5 concentrations of relevant chemotherapeutic agents in a complete Latin square. Combination indexes (CI) were determined based on the method described by Chou-Talalay with a CI value less than 0.9 indicating synergy. […] Numbers in parentheses represent the range of synergistic CI values for each cell line and drug combination.

[3] = Tolerability of daily oral MBZ dosing in ACC PDX mice; type: in vivo; details: athymic nude mice with ACC PDX tumors; 50 or 200 mg/kg daily
Experimental: Despite a deepening understanding of the molecular events that lead to sustained tumor growth, there are currently no approved therapies for ACC. Identification of therapies for ACC has been hampered by the lack of ACC cell lines and transgenic mouse models. To circumvent these issues, the activity of MBZ was tested in several ACC patient-derived xenograft (PDX) models. Athymic nude mice were implanted subcutaneously with PDX tumors and treatment was initiated when tumors reached a size of 125-300 mm^3. Mice were randomized into three treatment groups to receive daily treatment with vehicle or MBZ at either 50 or 200 mg/kg for the duration of the study. Tumor size was measured twice weekly.

[4] = tested on: multiple rare cancer tumor cell lines; experiment: MBZ alone, cell viability IC50 in rare cancer tumor cell lines (Example 3); type: cell-based; details: read-out: IC50s (range over cell lines)
Experimental: The FDA-approved anti-helminthic drug mebendazole (MBZ) has been reported to affect several biological pathways involved in tumor growth and metastasis. Based on this activity, multiple rare cancer tumor cell lines including, but not limited to, neuroblastoma, carcinoid tumors, esophageal adenocarcinoma, gastrointestinal stromal tumors, leiomyosarcoma, pheochromocytoma, and mesothelioma were analyzed for their susceptibility to MBZ treatment alone or in combination with standard chemotherapeutic agents in vitro.

[5] = tested on: MUG-Chor1 chordoma cell line; experiment: MBZ cell viability dose response (CellTiter Glo); type: cell-based; details: 72 hours, up to the highest concentration, 50 μM
Experimental: (§1) The effect of mebendazole administration on cell lines derived from exemplary cancers was tested. One approach to determining the effectiveness of mebendazole in the treatment of cancer comprises in vitro testing. In this approach, cancer cell lines representative of the cancers of the disclosure are cultured in vitro according to standard techniques (see, for example, Human Cell Culture Protocols, Third Edition, […] R. D. Hughes, Editors, Humana Press, 2012), and increasing concentrations of mebendazole are administered to determine the IC50 value. As used herein, the term “IC50 value” refers to the concentration of a compound (for example mebendazole) wherein the response to that compound (such as inhibited cellular viability) is reduced by half. The IC50 is thus a measure of the effectiveness of a compound in inhibiting a biological process. […] Based on this biology, several rare cancer tumor cell lines including neuroblastoma, rhabdomyosarcoma and Ewing sarcoma were analyzed for sensitivity to MBZ treatment in vitro. […] In all cases, including those described below, the viable cells were determined using the CellTiter Glo® kit and an IC50 curve was generated using the PRISM software. […] A dose response curve was generated using the PRISM software, with the intent of determining an IC50 for the cell lines following treatment of MBZ.

U-CH2 chordoma cell line = experiment: MBZ cell viability dose response (CellTiter Glo); type: cell-based; details: 72 hours, up to the highest concentration, 50 μM
Experimental: as §1

[6] = tested on: IMR-32 neuroblastoma cell line; experiment: MBZ cell viability IC50 (CellTiter Glo); type: cell-based; details: Homo sapiens, 72 hours
Experimental: (§2) The effect of mebendazole administration on cell lines derived from exemplary cancers was tested. One approach to determining the effectiveness of mebendazole in the treatment of cancer comprises in vitro testing. In this approach, cancer cell lines representative of the cancers of the disclosure are cultured in vitro according to standard techniques (see, for example, Human Cell Culture Protocols, Third Edition, […] R. D. Hughes, Editors, Humana Press, 2012), and increasing concentrations of mebendazole are administered to determine the IC50 value. As used herein, the term “IC50 value” refers to the concentration of a compound (for example mebendazole) wherein the response to that compound (such as inhibited cellular viability) is reduced by half. The IC50 is thus a measure of the effectiveness of a compound in inhibiting a biological process. […] Based on this biology, several rare cancer tumor cell lines including neuroblastoma, rhabdomyosarcoma and Ewing sarcoma were analyzed for sensitivity to MBZ treatment in vitro. […] In all cases, including those described below, the viable cells were determined using the CellTiter Glo® kit and an IC50 curve was generated using the PRISM software. […] The neuroblastoma cell lines IMR-32, CHP-212, and SK-N-AS were treated with ten serial dilutions of mebendazole for 72 hours.

[7] = tested on: SK-N-AS neuroblastoma cell line; experiment: MBZ cell viability IC50 (CellTiter Glo); type: cell-based; details: Homo sapiens, 72 hours
Experimental: as §2

[8] = tested on: CHP-212 neuroblastoma cell line; experiment: MBZ cell viability IC50 (CellTiter Glo); type: cell-based; details: Homo sapiens, 72 hours
Experimental: as §2

[9] = tested on: SNU16 gastric carcinoma cells; experiment: Synergy of MBZ or HA-PLGA-MBZ with chemotherapeutic agents (Chou-Talalay CI, Cell Titer Glo); type: cell-based; details: SNU16 + 5-FU
Experimental: as §4, §5, §6

SNU-16 cells = experiment: MBZ vs HA-PLGA-MBZ cell viability IC50 (Cell Titer Glo); type: cell-based; details: Homo sapiens, 72 hour incubation
From the text: (§3) An IC50 for each treatment was established using the PRISM software.

CHP-212 cells = experiment: as above; type: cell-based; details: Homo sapiens, 72 hour incubation
From the text: as §3

SW-1271 cells = experiment: as above; type: cell-based; details: SW1271, 72 hour incubation
From the text: as §3

PC-12 cells = experiment: as above; type: cell-based; details: Rattus norvegicus, 72 hour incubation
From the text: as §3

COV-362 cells = experiment: as above; type: cell-based; details: COV362, 72 hour incubation
From the text: as §3

NCI-H295R cells = experiment: as above; type: cell-based; details: Homo sapiens, 72 hour incubation
From the text: as §3

COLO-205 cells = experiment: as above; type: cell-based; details: Homo sapiens, 72 hour incubation
From the text: as §3

SK-UT-1 cells = experiment: as above; type: cell-based; details: Homo sapiens, 72 hour incubation
From the text: as §3

COC(=O)Nc1nc2ccc(C(=O)c3ccccc3)cc2[nH]1 [MBZ, methyl N-(6-benzoyl-1H-benzimidazol-2-yl)carbamate]
IC50 [1]: 0.05 to 1 µM | range of synergistic CI values [2]: 0.569-0.860 | tolerability of daily oral dosing [3]: well tolerated with no overt toxicities | IC50 [4]: 0.09 to 2.2 µM | sensitivity to MBZ treatment (dose response) [5]: largely resistant | sensitivity to MBZ treatment (dose response) (U-CH2 chordoma cell line): largely resistant | IC50 [6]: 0.05 µM | IC50 [7]: 0.68 µM | IC50 [8]: 0.13 µM | range of synergistic CI values [9]: 0.223-0.837 | IC50 (SNU-16 cells): 0.11 µM | IC50 (CHP-212 cells): 0.13 µM | IC50 (SW-1271 cells): > 50 µM | IC50 (PC-12 cells): 1.03 µM | IC50 (COV-362 cells): 0.33 µM | IC50 (NCI-H295R cells): 0.33 µM | IC50 (COLO-205 cells): 0.27 µM | IC50 (SK-UT-1 cells): 0.26 µM
